In US9125913B2, “Bcl-2-selective apoptosis-inducing agents for the treatment of cancer and immune diseases” (AbbVie Inc., priority 2008, dated 2015):

Tested on: GST-Bcl-2
Experiment: TR-FRET binding assay, Bcl-2
Conditions: TR-FRET Ki values
Procedure, shortened: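 Ki values come from Wang's competitive-binding equation applied to TR-FRET signal (excitation 340/35 nm; emission 520/525 nm F-Bak peptide, 495/510 nm Tb antibody). Protein, probe and antibody incubated with compound 3 h at room temperature; dilution series began at 50 μM as 2× stock in 10% DMSO.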

Structure (SMILES)	Binding selectivity ratio (Bcl-XL Ki/Bcl-2 Ki)
CC1(C)CCC(CN2CCN(c3ccc(C(=O)NS(=O)(=O)c4ccc(NCC5(F)CCOCC5)c([N+](=O)[O-])c4)c(Oc4cccc5[nH]ncc45)c3)CC2)=C(c2ccc(Cl)cc2)C1 [EXAMPLE 409, 4-(4-{[2-(4-chlorophenyl)-4,4-dimethylcyclohex-1-en-1-yl]methyl}piperazin-1-yl)-N-[(4-{[(4-fluorotetrahydro-2H-pyran-4-yl)methyl]amino}-3-nitrophenyl)sulfonyl]-2-(1H-indazol-4-yloxy)benzamide]	1748.5
CC1(C)CCC(CN2CCN(c3ccc(C(=O)NS(=O)(=O)c4cnc(NCC5CCOCC5)c(Br)c4)c(Oc4ccc5[nH]ccc5c4)c3)CC2)=C(c2ccc(Cl)cc2)C1 [EXAMPLE 350, N-({5-bromo-6-[(tetrahydro-2H-pyran-4-ylmethyl)amino]pyridin-3-yl}sulfonyl)-4-(4-{[2-(4-chlorophenyl)-4,4-dimethylcyclohex-1-en-1-yl]methyl}piperazin-1-yl)-2-(1H-indol-5-yloxy)benzamide]	>110.6
CCN(CC)C1CCC(Nc2ccc(S(=O)(=O)NC(=O)c3ccc(N4CCN(CC5=C(c6ccc(Cl)cc6)CC(C)(C)CC5)CC4)cc3Oc3ccc4[nH]ccc4c3)cc2[N+](=O)[O-])CC1 (centres unmarked) [EXAMPLE 201, 4-(4-{[2-(4-chlorophenyl)-4,4-dimethylcyclohex-1-en-1-yl]methyl}piperazin-1-yl)-N-[(4-{[4-(diethylamino)cyclohexyl]amino}-3-nitrophenyl)sulfonyl]-2-(1H-indol-5-yloxy)benzamide]	196.6
O=C(NS(=O)(=O)c1ccc(NCC2CCOCC2)c([N+](=O)[O-])c1)c1ccc(N2CCN(Cc3cc(OCCN4CCOCC4)ccc3-c3ccc(Cl)cc3)CC2)cc1Oc1ccccc1 [Example 115, 4-(4-{[4′-chloro-4-(2-morpholin-4-ylethoxy)-1,1′-biphenyl-2-yl]methyl}piperazin-1-yl)-N-({3-nitro-4-[(tetrahydro-2H-pyran-4-ylmethyl)amino]phenyl}sulfonyl)-2-phenoxybenzamide]	156.4
CC1(C)CCC(CN2CCN(c3ccc(C(=O)NS(=O)(=O)c4ccc(NC5CCN(c6nccs6)CC5)c([N+](=O)[O-])c4)c(Oc4ccc5[nH]ccc5c4)c3)CC2)=C(c2ccc(Cl)cc2)C1 [EXAMPLE 212, 4-(4-{[2-(4-chlorophenyl)-4,4-dimethylcyclohex-1-en-1-yl]methyl}piperazin-1-yl)-2-(1H-indol-5-yloxy)-N-[(3-nitro-4-{[1-(1,3-thiazol-2-yl)piperidin-4-yl]amino}phenyl)sulfonyl]benzamide]	>895.1
CC1(C)CCC(CN2CCN(c3ccc(C(=O)NS(=O)(=O)c4ccc(NCC5COCCO5)c([N+](=O)[O-])c4)c(Oc4ccc5[nH]ccc5c4)c3)CC2)=C(c2ccc(Cl)cc2)C1 (centres unmarked) [EXAMPLE 336, 4-(4-{[2-(4-chlorophenyl)-4,4-dimethylcyclohex-1-en-1-yl]methyl}piperazin-1-yl)-N-({4-[(1,4-dioxan-2-ylmethyl)amino]-3-nitrophenyl}sulfonyl)-2-(1H-indol-5-yloxy)benzamide]	2301.3
CC(C)N(C)CCCNc1ccc(S(=O)(=O)NC(=O)c2ccc(N3CCN(Cc4ccccc4-c4ccc(Cl)cc4)CC3)cc2Oc2ccccc2)cc1[N+](=O)[O-] [Example 93, 4-{4-[(4′-chloro-1,1′-biphenyl-2-yl)methyl]piperazin-1-yl}-N-{[4-({3-[isopropyl(methyl)amino]propyl}amino)-3-nitrophenyl]sulfonyl}-2-phenoxybenzamide]	60
CC(C1=C(c2ccc(Cl)cc2)CC(C)(C)CC1)N1CCN(c2ccc(C(=O)NS(=O)(=O)c3ccc(NCCCN4CCOCC4)c([N+](=O)[O-])c3)c(Oc3ccc4[nH]ccc4c3)c2)CC1 (centres unmarked) [EXAMPLE 257, 4-(4-{1-[2-(4-chlorophenyl)-4,4-dimethylcyclohex-1-en-1-yl]ethyl}piperazin-1-yl)-2-(1H-indol-5-yloxy)-N-({4-[(3-morpholin-4-ylpropyl)amino]-3-nitrophenyl}sulfonyl)benzamide]	100.2
CC1(C)CCC(CN2CCN(c3ccc(C(=O)NS(=O)(=O)c4cnc(OCC5CCOCC5)c(Br)c4)c(Oc4cccc5[nH]ccc45)c3)CC2)=C(c2ccc(Cl)cc2)C1 [EXAMPLE 364, N-{[5-bromo-6-(tetrahydro-2H-pyran-4-ylmethoxy)pyridin-3-yl]sulfonyl}-4-(4-{[2-(4-chlorophenyl)-4,4-dimethylcyclohex-1-en-1-yl]methyl}piperazin-1-yl)-2-(1H-indol-4-yloxy)benzamide]	12197.3
O=C(NS(=O)(=O)c1ccc(NCC2CCOCC2)c([N+](=O)[O-])c1)c1ccc(N2CCN(Cc3cc(OCCCN4CCCCC4)ccc3-c3ccc(Cl)cc3)CC2)cc1Oc1ccccc1 [Example 114, 4-(4-{[4′-chloro-4-(3-piperidin-1-ylpropoxy)-1,1′-biphenyl-2-yl]methyl}piperazin-1-yl)-N-({3-nitro-4-[(tetrahydro-2H-pyran-4-ylmethyl)amino]phenyl}sulfonyl)-2-phenoxybenzamide]	149.2
O=C(NS(=O)(=O)c1ccc(NCCCN2CCOCC2)c(S(=O)(=O)C(F)(F)F)c1)c1ccc(N2CCN(Cc3ccccc3-c3ccc(Cl)cc3)CC2)cc1Oc1cccc2[nH]ccc12 [Example 65, 4-{4-[(4′-chloro-1,1′-biphenyl-2-yl)methyl]piperazin-1-yl}-2-(1H-indol-4-yloxy)-N-({4-[(3-morpholin-4-ylpropyl)amino]-3-[(trifluoromethyl)sulfonyl]phenyl}sulfonyl)benzamide]	4.8
CN(C)CCCc1cccc(-c2ccc(Cl)cc2)c1CN1CCN(c2ccc(C(=O)NS(=O)(=O)c3ccc(NCC4CCOCC4)c([N+](=O)[O-])c3)c(Oc3cccc4[nH]ccc34)c2)CC1 [EXAMPLE 196, 4-[4-({4′-chloro-3-[3-(dimethylamino)propyl]-1,1′-biphenyl-2-yl}methyl)piperazin-1-yl]-2-(1H-indol-4-yloxy)-N-({3-nitro-4-[(tetrahydro-2H-pyran-4-ylmethyl)amino]phenyl}sulfonyl)benzamide]	>20552.4
CC1(C)CCC(CN2CCN(c3ccc(C(=O)NS(=O)(=O)c4ccc(NCCCN5CCS(=O)(=O)CC5)c([N+](=O)[O-])c4)c(Oc4cccc5[nH]ccc45)c3)CC2)=C(c2ccc(Cl)cc2)C1 [EXAMPLE 295, 4-(4-{[2-(4-chlorophenyl)-4,4-dimethylcyclohex-1-en-1-yl]methyl}piperazin-1-yl)-N-[(4-{[3-(1,1-dioxidothiomorpholin-4-yl)propyl]amino}-3-nitrophenyl)sulfonyl]-2-(1H-indol-4-yloxy)benzamide]	599.4
CC1(C)CCC(CN2CCN(c3ccc(C(=O)NS(=O)(=O)c4ccc(NC[C@H]5CCCO5)c([N+](=O)[O-])c4)c(Oc4ccc5[nH]ccc5c4)c3)CC2)=C(c2ccc(Cl)cc2)C1 [EXAMPLE 370, 4-(4-{[2-(4-chlorophenyl)-4,4-dimethylcyclohex-1-en-1-yl]methyl}piperazin-1-yl)-2-(1H-indol-5-yloxy)-N-[(3-nitro-4-{[(2R)-tetrahydrofuran-2-ylmethyl]amino}phenyl)sulfonyl]benzamide]	>729.9
O=C(NS(=O)(=O)c1ccc(NCCCN2CCOCC2)c([N+](=O)[O-])c1)c1ccc(N2CCN(Cc3ccccc3-c3ccc(Cl)cc3)CC2)cc1Oc1cccc2[nH]ccc12 [Example 58, 4-{4-[(4′-chloro-1,1′-biphenyl-2-yl)methyl]piperazin-1-yl}-2-(1H-indol-4-yloxy)-N-({4-[(3-morpholin-4-ylpropyl)amino]-3-nitrophenyl}sulfonyl)benzamide]	265.5
O=C(NS(=O)(=O)c1ccc(NCCCN2CCOCC2)cc1)c1ccc(N2CCN(Cc3ccccc3-c3ccc(Cl)cc3)CC2)cc1Oc1ccccc1 [Example 78, 4-{4-[(4′-chloro-1,1′-biphenyl-2-yl)methyl]piperazin-1-yl}-N-({4-[(3-morpholin-4-ylpropyl)amino]phenyl}sulfonyl)-2-phenoxybenzamide]	>5.9
CC1(C)CCC(CN2CCN(c3ccc(C(=O)NS(=O)(=O)c4ccc(N[C@H]5CC[C@H](N6CCOCC6)CC5)c([N+](=O)[O-])c4)c(Oc4ccc5[nH]ccc5c4)c3)CC2)=C(c2ccc(Cl)cc2)C1 [Example 178, Trans-4-(4-{[2-(4-chlorophenyl)-4,4-dimethylcyclohex-1-en-1-yl]methyl}piperazin-1-yl)-2-(1H-indol-5-yloxy)-N-({4-[(4-morpholin-4-ylcyclohexyl)amino]-3-nitrophenyl}sulfonyl)benzamide]	>2915.8
CC1(C)CCC(CN2CCN(c3ccc(C(=O)NS(=O)(=O)c4cccc(C(=O)NCC5CCOCC5)c4)c(Oc4ccc5[nH]ccc5c4)c3)CC2)=C(c2ccc(Cl)cc2)C1 [EXAMPLE 345, 4-(4-{[2-(4-chlorophenyl)-4,4-dimethylcyclohex-1-en-1-yl]methyl}piperazin-1-yl)-2-(1H-indol-5-yloxy)-N-[(3-{[(tetrahydro-2H-pyran-4-ylmethyl)amino]carbonyl}phenyl)sulfonyl]benzamide]	>575.9
CN(C)CC(=O)N1CCO[C@H](CNc2ccc(S(=O)(=O)NC(=O)c3ccc(N4CCN(CC5=C(c6ccc(Cl)cc6)CC(C)(C)CC5)CC4)cc3Oc3cccc4[nH]cnc34)cc2[N+](=O)[O-])C1 [EXAMPLE 437, 2-(1H-benzimidazol-4-yloxy)-4-(4-{[2-(4-chlorophenyl)-4,4-dimethylcyclohex-1-en-1-yl]methyl}piperazin-1-yl)-N-{[4-({[(2R)-4-(N,N-dimethylglycyl)morpholin-2-yl]methyl}amino)-3-nitrophenyl]sulfonyl}benzamide]	51.4
O=C(NS(=O)(=O)c1ccc(NCCCN2CCOCC2)c([N+](=O)[O-])c1)c1ccc(N2CCN(Cc3ccccc3-c3ccc(Cl)cc3)CC2)cc1Oc1ccc2[nH]ccc2c1 [Example 59, 4-{4-[(4′-chloro-1,1′-biphenyl-2-yl)methyl]piperazin-1-yl}-2-(1H-indol-5-yloxy)-N-({4-[(3-morpholin-4-ylpropyl)amino]-3-nitrophenyl}sulfonyl)benzamide]	1867.6
